Test results reported in publication PMC9611540, “PEGylation of the antimicrobial peptide LyeTx I-b maintains structure-related biological properties and improves selectivity” (Frontiers in Molecular Biosciences, 2022).

Legend:
[1] = test system: S. aureus ISOL_1 (multidrug-resistant isolate); type: cell-based, Staphylococcus aureus; settings: for MIC: S. aureus ISOL_1, microdilution plates, Mueller Hinton, 10^4 bacterial cells per well, peptides 32 to 0.25 μM, triplicate
Text: (§1) Escherichia coli (ATCC 25922), Staphylococcus aureus (ATCC 33591), and three multidrug-resistant isolates (two E. coli and one S. aureus) were provided by Laboratory of Oral Microbiology and Anaerobes, Department of Microbiology, Institute of Biological Sciences, Federal University of Minas Gerais. Renal epithelial cells of the African green monkey (Cercopithecus aethiops) (VERO, ATCC CCL-81) were provided by the Federal University of Sao Joao del-Rei (UFSJ).
(§2) In order to determine MIC values of the PEGylated and the non-PEGylated peptides, bacterial isolates were cultured in TSA. After incubation for 24 h, at 37°C, under aerobic conditions, colonies were collected using an inoculation loop and transferred to saline solution (0.9% m/v NaCl). The inoculums were checked in a spectrophotometer at 600 nm; colonies were added until an absorbance corresponding to 1.5 × 10^8 cells · mL^−1 was obtained. Then, a 150-fold dilution was performed to achieve a concentration of 1 × 10^6 cells · mL^−1. MIC assays were performed in microdilution plates employing inoculums of 10^4 bacterial cells per well and concentrations of peptides ranging from 32 to 0.25 μM. All analyses were performed in triplicate. Positive (MH + bacterial inoculum) and negative (MH and MH + saline solution) controls were included in each batch of tests.
(§3) The specific values of molar peptide concentration used in this work were estimated according to the method described by [Schmid (2001)].

proteinase K = proteinase K (Parengyodontium album, UniProt P06873); assay: Proteolytic degradation assay, RP-HPLC; type: in vitro ADME; settings: 50 μM peptide, enzyme:substrate 1:50 (w/w) or 1:25 (w/w), 10 mM phosphate buffer pH 8.0, 37°C, up to 24 h, RP-HPLC C18, UV 215 nm
Chain of proteinase K (P06873 106-384): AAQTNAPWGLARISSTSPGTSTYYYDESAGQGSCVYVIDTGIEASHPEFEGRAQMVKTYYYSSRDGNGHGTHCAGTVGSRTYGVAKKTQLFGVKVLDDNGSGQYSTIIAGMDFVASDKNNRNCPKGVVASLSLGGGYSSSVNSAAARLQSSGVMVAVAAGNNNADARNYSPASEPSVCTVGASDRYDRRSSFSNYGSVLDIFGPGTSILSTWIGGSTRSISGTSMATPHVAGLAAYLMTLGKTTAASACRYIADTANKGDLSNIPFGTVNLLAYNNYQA
Procedure: (§4) The enzymes used in the experiments were trypsin and proteinase K. Enzyme solutions were prepared a few minutes before the experiments and contained 1.0 µM enzyme in 10 mM phosphate buffer at pH 8.0 for activation. Comparative proteolysis experiments between LyeTx I-b and LyeTx I-bPEG were performed by digesting the peptide solution (50 μM) with the enzyme solutions incubated at 37°C at an enzyme:substrate ratio of 1:50 (w/w) for trypsin and 1:50 (w/w) for proteinase K for 24 h. […] After inactivation, aliquots of 50 µL were injected into a Varian™ chromatograph (Varian, Inc. Corporate Headquarters, Palo Alto, CA, United States), model Pro Star 315, with ultraviolet detector, model Pro Star 335, using a Vydac™ 218 TP C18 (250 × 4.6 mm) reverse phase column. Chromatographic analyses were performed using a gradient of deionized water containing 0.1% TFA and acetonitrile containing 0.08% TFA. Samples were detected at 215 nm under a flow of 0.80 mL · min^−1 for 45 min.

trypsin = assay: Proteolytic degradation assay, RP-HPLC; type: in vitro ADME; settings: 50 μM peptide, enzyme:substrate 1:50 (w/w), 10 mM phosphate buffer pH 8.0, 37°C, up to 24 h, RP-HPLC C18, UV 215 nm
Procedure: as §4

[2] = test system: E.coli ISOL_10 (multidrug-resistant isolate); type: cell-based, Escherichia coli; settings: microdilution plates, Mueller Hinton, 10^4 bacterial cells per well, peptides 32 to 0.25 μM, triplicate
Text: as §1, §2, §3

[3] = test system: E.coli ISOL_11 (multidrug-resistant isolate); type: cell-based, Escherichia coli; settings: for MIC: E. coli ISOL_11, microdilution plates, Mueller Hinton, 10^4 bacterial cells per well, peptides 32 to 0.25 μM, triplicate
Text: as §1, §2, §3

[4] = test system: Staphylococcus aureus (ATCC 33591); type: cell-based; settings: for MIC: S. aureus ATCC 33591, microdilution plates, Mueller Hinton, 10^4 bacterial cells per well, peptides 32 to 0.25 μM, triplicate
Text: as §1, §2, §3

[5] = test system: Escherichia coli (ATCC 25922); type: cell-based; settings: for MIC: E. coli ATCC 25922, microdilution plates, Mueller Hinton, 10^4 bacterial cells per well, peptides 32 to 0.25 μM, triplicate
Text: as §1, §2, §3

| Substance | MIC [1] | Selectivity index (SI) ([1]; S. aureus ISOL_1 versus VERO cells (CC50, MTT, 24 h)) | Proteolytic degradation by proteinase K (proteinase K) | Proteolytic degradation by trypsin (trypsin) | MIC [2] | MIC [3] | Selectivity index (SI) ([3]; E. coli ISOL_11 versus VERO cells (CC50, MTT, 24 h)) | MIC [4] | Selectivity index (SI) ([4]; S. aureus ATCC 33591 versus VERO cells (CC50, MTT, 24 h)) | MIC [5] | Selectivity index (SI) ([5]; E. coli ATCC 25922 versus VERO cells (CC50, MTT, 24 h)) |
| --- | --- | --- | --- | --- | --- | --- | --- | --- | --- | --- | --- |
| Ac-IWLTALKFLGKNLGKLAKQQLAKL-NH2 [LyeTx I-b] | 2.0 µM | 0.48 | almost completely degraded after 6 h | almost completely degraded after 6 h | 1.0 µM | 1.0 µM | 0.96 | 2.0 µM | 0.48 | 1.0 µM | 0.96 |
| Ac-IWLTALKFLGKNLGKLAKQQCAKL-NH2 [LyeTx I-bcys] | 2.0 µM | – | – | – | 1.0 µM | 1.0 µM | – | 2.0 µM | – | 1.0 µM | – |
